According to US20020051828A1, “Mixtures which can be isolated from eugenia jambolana lamarck seeds, their preparation and the use of these mixtures and some of their constituents as medicaments” (priority 1996, published 2002):

What was measured:
[1] = test system: normal mice with post-prandial hyperglycaemia; test: glycaemia of normal mice with post-prandial hyperglycaemia; assay type: in vivo, Swiss albino mice; conditions: 0.5 mg/mouse by gastric intubation; for GLYCAEMIA AT T0: T0, before administration; for GLYCAEMIA AT T60: T60, one hour after administration; for % inhibition: glycaemia T60 versus T0
Protocol: (§1) The hypoglycaemic activity of the mixtures I and II, of sodium oxamate and of the compounds of formula (I) have been determined in mice made diabetic with streptozocin and in normal mice with post-prandial hyperglycaemia according to the following procedures:
II—Normal Mice with Post-prandial Hyperglycaemia
Swiss albino mice weighing between 22 and 25 g are made to have post-prandial hyperglycaemia by the following procedure:
food in excess for 1 hour
The glycaemia is measured at the end of the last two hours of fasting, which constitutes the glycaemia at time T0. The mice are then divided into homogeneous batches according to the measured glycaemias. The products to be evaluated are administered without delay by gastric intubation in 0.4 ml of distilled water. The control batch receives the excipient (0.4 ml of distilled water). After one hour, the final glycaemias are measured which constitute the glycaemia at time T60.

[2] = test system: mice made diabetic with streptozotocin; test: glycaemia of mice made diabetic with streptozotocin; assay type: in vivo, Swiss albino mice; conditions: for GLYCAEMIA AT D5 / % change in glycaemia: 0.5 mg/mouse/day by gastric intubation for 4 days; for GLYCAEMIA AT D5: D5, after 4 h fasting; for % change in glycaemia: glycaemia D5 versus D1; for GLYCAEMIA AT D1: 0.5 mg/mouse/day by gastric intubation, D1, start of treatment, after 4 h fasting
Protocol: as §1
I—Mice Made Diabetic with Streptozotocin
Swiss albino mice weighing between 22 and 25 g are made diabetic with streptozotocin administered by intraperitoneal injection at a dose of 210 or 265 mg/Kg of mouse, diluted in a citrate buffer at a concentration such that each mouse receives 0.2 ml of the solution on day 1 (D1). 3 to 4 days later, a check is made on 2 to 3 mice to see if the diabetes is established (glycaemia greater than 7.2 mmol/liter (130 mg per 100 ml). The glycaemia is then measured after starving for 4 hours. If the mice have become diabetic, they are divided into batches of 5 to 7 mice. Each of the batches receives, from D1 and daily, a selected dose of product. The administration is made once a day and at a fixed time, by gastric intubation and in a volume of 0.4 ml of distilled water as vehicle. Two batches of controls are made up:
one batch of untreated diabetic mice
These two batches of controls receive 0.4 ml of vehicle by gastric intubation and simultaneously with the treated mice.
The treatment lasts for 4 days. On the 5th day (D5), there is no administration of product. After fasting for 4 hours, the final glycaemias are measured.

[3] = oral toxicity (LD50) in mice; conditions: mouse, in vivo, orally in mice
Protocol: The mixtures according to the invention, the sodium oxamate and the compounds of formula (I) have a low toxicity. Their LD50 is greater than 2000 mg/kg orally in mice.

| SMILES | GLYCAEMIA AT T0 [1] [mg/100 ml] | GLYCAEMIA AT T60 [1] [mg/100 ml] | % inhibition [1] [%] | GLYCAEMIA AT D5 [2] [mg/100 ml] | % change in glycaemia [2] [%] | GLYCAEMIA AT D1 [2] [mg/100 ml] | LD50 [3] [mg/kg] |
| --- | --- | --- | --- | --- | --- | --- | --- |
| OCC(O)C(O)C(O)c1cnc(C(O)C(O)C(O)CO)cn1 (stereo not shown) [2,5-di(tetrahydroxybutyl)pyrazine, 2,5-di-(tetrahydroxybutyl)pyrazine] | 136.25 | 102.41 | −24.83 | – | – | – | – |
| NC(=O)C(=O)[O-].[Na+] [Sodium oxamate, sodium oxamate] | 136.46 | 102.93 | −24.57 | 89.90 | −41.46 | 153.40 | > 2000 |
| OCC(O)C(O)Cc1cnc(C(O)C(O)C(O)CO)cn1 (stereo not shown) [2-(tetrahydroxybutyl)-5-(2′,3′,4′-trihydroxybutyl)pyrazine] | 128.75 | 90.50 | −29.70 | 164.50 | −45.93 | 304.25 | – |
